Structures can show the parent of a compound that is named as a salt.
Assays:
Format in all cases: physicochemical
[1] = Vapor-liquid equilibrium still, separation of 1,1,1-trichloroethane from methanol
[2] = Vapor-liquid equilibrium still, separation of 1,1,1-trichloroethane from 2-butanol
[3] = Vapor-liquid equilibrium still, separation of 1,1,1-trichloroethane from ethanol
[4] = Vapor-liquid equilibrium still, separation of 1,1,1-trichloroethane from isopropanol
[5] = Vapor-liquid equilibrium still, separation of 1,1,1-trichloroethane from n-propanol
[6] = Vapor-liquid equilibrium still, separation of 1,1,1-trichloroethane from t-butanol
[7] = 1,1,1-trichloroethane from methanol, vapor-liquid equilibrium still
[8] = * Brings out Ethanol as Overhead
[9] = 1,1,1-trichloroethane from 2-butanol, vapor-liquid equilibrium still
[10] = 1,1,1-trichloroethane from ethanol
[11] = 1,1,1-trichloroethane from n-propanol, vapor-liquid equilibrium still
[12] = 1,1,1-trichloroethane from t-butanol

1-Methoxy-2-acetoxy propanol
Relative Volatility [1, 7]: 2.3

CC(=O)O[C@@H]1C[C@H]2CC[C@]1(C)C2(C)C (racemic) [Isobornyl acetate]
Relative Volatility [2]: 1.7 | Relative Volatility [3, 8]: 1.6 | Relative Volatility [1]: 2.5

COCC(C)OC(C)=O (centres unmarked) [1-Methoxy-2-acetoxy propane]
Relative Volatility [2, 9]: 2.0

COCC(C)OC(C)=O (centres unmarked) [1-Methoxy-2-propanol acetate]
Relative Volatility [2, 9]: 4.3 | Relative Volatility [4]: 1.7 | Relative Volatility [1]: 1.7

COCC(C)O (centres unmarked) [1-Methoxy-2-propanol]
Relative Volatility [3, 10]: 2.9

CN1CCCC1=O [1-Methyl-2-pyrrolidinone]
Relative Volatility [2, 9]: 3.6 | Relative Volatility [3, 10]: 2.5 | Relative Volatility [1]: 2.7

CCC[N+](=O)[O-] [1-Nitropropane]
Relative Volatility [2]: 1.6 | Relative Volatility [1, 7]: 2.1 | Relative Volatility [5]: 1.3

CC(=O)CC(C)=O [2,4-Pentanedione]
Relative Volatility [2]: 1.8 | Relative Volatility [1]: 2.7 | Relative Volatility [5]: 1.6

CC(C)CC(=O)CC(C)C [2,6-Dimethyl-4-heptanone]
Relative Volatility [3, 10]: 1.65

CCC(CC)CO [2-Ethyl butanol]
Relative Volatility [2, 9]: 3.3 | Relative Volatility [1]: 1.4

CCCCC(CC)COC(C)=O (centres unmarked) [2-Ethyl hexyl acetate]
Relative Volatility [2]: 1.6 | Relative Volatility [4]: 1.3 | Relative Volatility [1, 7]: 2.0

CCCCCC(C)=O [2-Heptanone]
Relative Volatility [2]: 1.4 | Relative Volatility [3, 10]: 1.3 | Relative Volatility [1, 7]: 3.2

CCC(C)COC(C)=O (centres unmarked) [2-Methyl butyl acetate]
Relative Volatility [4]: 1.35

CC(C)[N+](=O)[O-] [2-Nitropropane]
Relative Volatility [2]: 1.6 | Relative Volatility [1, 7]: 2.0 | Relative Volatility [5]: 1.4

CCCCCCC(C)O (centres unmarked) [2-Octanol]
Relative Volatility [2, 9]: 2.6 | Relative Volatility [1, 7]: 2.8

CCCCCCC(C)=O [2-Octanone]
Relative Volatility [5]: 1.25

CCCCCCCCCC(C)=O [2-Undecanone]
Relative Volatility [3, 10]: 1.4

CC(=O)C(C)(C)C [3,3-Dimethyl-2-butanone]
Relative Volatility [3, 10]: 1.65 | Relative Volatility [5]: 1.4

CCCCC(=O)CC [3-Heptanone]
Relative Volatility [5]: 1.25

CC(C)CCO [3-Methyl-1-butanol]
Relative Volatility [3, 10]: 2.9

CC(=O)OC(C)CC(C)C (centres unmarked) [4-Methyl pentyl acetate-2]
Relative Volatility [2, 9]: 1.7 | Relative Volatility [3, 8]: 1.45 | Relative Volatility [1, 7]: 2.9

CC(C)CC(C)O (centres unmarked) [4-Methyl-2-pentanol]
Relative Volatility [2, 9]: 3.2 | Relative Volatility [3, 10]: 2.1 | Relative Volatility [1, 7]: 4.2

CC(=O)CC(C)C [4-Methyl-2-pentanone]
Relative Volatility [3, 10]: 1.6 | Relative Volatility [5]: 1.4

CC(=O)CCC(C)C [5-Methyl-2-hexanone]
Relative Volatility [5, 11]: 1.3

CC(=O)c1ccccc1 [Acetophenone]
Relative Volatility [2]: 3.0 | Relative Volatility [3, 10]: 1.35 | Relative Volatility [1, 7]: 2.3 | Relative Volatility [5]: 1.7

N#CCCCCC#N [Adiponitrile]
Relative Volatility [4]: 1.25

CCCCCOC(C)=O [Amyl acetate]
Relative Volatility [2]: 1.5 | Relative Volatility [4]: 1.4 | Relative Volatility [1, 7]: 2.1

COc1ccccc1 [Anisole]
Relative Volatility [3, 8]: 1.25

CC(=O)OCc1ccccc1 [Benzyl acetate]
Relative Volatility [2, 9]: 1.7 | Relative Volatility [4]: 1.55 | Relative Volatility [3, 10]: 1.2 | Relative Volatility [1]: 2.5

OCc1ccccc1 [Benzyl alcohol]
Relative Volatility [2, 9]: 3.5

O=C(OCc1ccccc1)c1ccccc1 [Benzyl benzoate]
Relative Volatility [5, 11]: 1.6

CC(=O)CC(C)(C)O [Diacetone alcohol]
Relative Volatility [3, 10]: 2.7

CCCCOCCOCCO [Diethylene glycol butyl ether]
Relative Volatility [6, 12]: 1.5 | Relative Volatility [2]: 2.7 | Relative Volatility [1, 7]: 2.1 | Relative Volatility [5, 11]: 2.8

CCOCCOCCOCC [Diethylene glycol diethyl ether]
Relative Volatility [2]: 1.6 | Relative Volatility [3, 8]: 1.2 | Relative Volatility [1]: 2.7 | Relative Volatility [5]: 1.6

CCOCCOCCOC(C)=O [Diethylene glycol ethyl ether acetate]
Relative Volatility [2, 9]: 2.1 | Relative Volatility [1, 7]: 2.8

CCOCCOCCO [Diethylene glycol ethyl ether]
Relative Volatility [6, 12]: 1.4 | Relative Volatility [2, 9]: 2.8 | Relative Volatility [3, 10]: 1.2 | Relative Volatility [1]: 2.9

CCCCCCOCCOCCO [Diethylene glycol hexyl ether]
Relative Volatility [6, 12]: 1.5 | Relative Volatility [2, 9]: 2.3 | Relative Volatility [1, 7]: 4.2 | Relative Volatility [5, 11]: 2.0

CC(C)CC(O)CC(C)C [Diisobutyl carbinol]
Relative Volatility [2]: 2.2

CC(C)CC(=O)CC(C)C [Diisobutyl ketone]
Relative Volatility [2]: 1.5 | Relative Volatility [3, 10]: 1.7 | Relative Volatility [1]: 2.7

CN(C)C=O [Dimethylformamide]
Relative Volatility [2]: 2.8 | Relative Volatility [4]: 1.55 | Relative Volatility [1]: 2.8 | Relative Volatility [5]: 2.8

CCOCCC(=O)OCC [Ethyl 3-ethoxy propionate]
Relative Volatility [3, 10]: 1.6

CCOC(=O)CC(C)=O [Ethyl acetoacetate]
Relative Volatility [2]: 1.8 | Relative Volatility [3, 10]: 1.7 | Relative Volatility [1, 7]: 2.8

CCOC(=O)c1ccccc1 [Ethyl benzoate]
Relative Volatility [3, 10]: 1.55

CCCC(=O)OCC [Ethyl butyrate]
Relative Volatility [4]: 1.3 | Relative Volatility [3, 8]: 1.2

CCOC(=O)CC(C)C [Ethyl isovalerate]
Relative Volatility [2]: 1.6 | Relative Volatility [4]: 1.6 | Relative Volatility [3, 10]: 1.4 | Relative Volatility [1]: 2.7

CCCCC(=O)OCC [Ethyl n-valerate]
Relative Volatility [2]: 1.5 | Relative Volatility [4]: 1.35 | Relative Volatility [3, 10]: 1.6 | Relative Volatility [1]: 2.7

CCOC(=O)Cc1ccccc1 [Ethyl phenyl acetate]
Relative Volatility [3, 8]: 1.5

O=C1OCCO1 [Ethylene carbonate]
Relative Volatility [6, 12]: 1.3 | Relative Volatility [2, 9]: 2.8 | Relative Volatility [3, 10]: 3.2 | Relative Volatility [1, 7]: 3.3

CCCCOCCOC(C)=O [Ethylene glycol butyl ether acetate]
Relative Volatility [2]: 1.8 | Relative Volatility [4]: 1.3 | Relative Volatility [3, 10]: 1.2 | Relative Volatility [1, 7]: 2.1

CCOCCOC(C)=O [Ethylene glycol ethyl ether acetate]
Relative Volatility [3, 8]: 1.5 | Relative Volatility [1]: 2.5

CCCCCCOCCO [Ethylene glycol hexyl ether]
Relative Volatility [2]: 2.9 | Relative Volatility [1]: 3.1

CCCCCCCO [Heptyl alcohol]
Relative Volatility [2]: 3.1 | Relative Volatility [1]: 3.6

CCCCCCOC(C)=O [Hexyl acetate]
Relative Volatility [2]: 1.6 | Relative Volatility [4]: 1.35

CCCCCCO [Hexyl alcohol]
Relative Volatility ([6]; * Brings out t-Butanol as Overhead): 1.2 | Relative Volatility [5]: 2.5

CC(=O)OCCC(C)C [Isoamyl acetate]
Relative Volatility [3, 10]: 1.25

CC(=O)OCC(C)C [Isobutyl acetate]
Relative Volatility [4]: 1.35

CC(C)COC(=O)C(C)C [Isobutyl isobutyrate]
Relative Volatility [2]: 1.5 | Relative Volatility [4]: 1.3 | Relative Volatility [3, 10]: 3.3

CC(C)CCCCCCCO [Isodecyl alcohol]
Relative Volatility [2, 9]: 2.4 | Relative Volatility [1, 7]: 2.3

CC(C)CCCCCO [Isooctyl alcohol]
Relative Volatility [2, 9]: 2.4 | Relative Volatility [3, 10]: 2.1 | Relative Volatility [1]: 2.5

CC1=CC(=O)CC(C)(C)C1 [Isophorone]
Relative Volatility [6, 12]: 1.4 | Relative Volatility [2, 9]: 2.0 | Relative Volatility [3, 10]: 1.55

CC(=O)OC(C)C [Isopropyl acetate]
Relative Volatility [3, 10]: 1.6

COC(=O)c1ccccc1 [Methyl benzoate]
Relative Volatility [5]: 1.25

CC(=O)CCC(C)C [Methyl isoamyl ketone]
Relative Volatility [2, 9]: 1.6 | Relative Volatility [3, 10]: 2.0 | Relative Volatility [1, 7]: 2.3

CC(=O)CC(C)C [Methyl isobutyl ketone]
Relative Volatility [3, 10]: 1.85 | Relative Volatility [5]: 1.5

O=[N+]([O-])c1ccccc1 [Nitrobenzene]
Relative Volatility [2]: 1.6 | Relative Volatility [1]: 2.5 | Relative Volatility [5]: 1.4

CC[N+](=O)[O-] [Nitroethane]
Relative Volatility [4]: 1.3 | Relative Volatility [1]: 2.8

CC(=O)Oc1ccccc1 [Phenyl acetate]
Relative Volatility [4]: 1.25

CC(C)COCC(C)O (centres unmarked) [Propylene glycol isobutyl ether]
Relative Volatility [6, 12]: 1.4 | Relative Volatility [2, 9]: 2.4 | Relative Volatility [1]: 2.5

COCC(C)OC(C)=O (centres unmarked) [Propylene glycol methyl ether acetate]
Relative Volatility [2]: 1.8 | Relative Volatility [1, 7]: 2.3

CC(O)COc1ccccc1 (centres unmarked) [Propylene glycol phenyl ether]
Relative Volatility [2, 9]: 2.4 | Relative Volatility [4]: 1.6 | Relative Volatility [1]: 3.1 | Relative Volatility [5, 11]: 3.4

OCC1CCCO1 (centres unmarked) [Tetrahydro furfuryl alcohol]
Relative Volatility [2, 9]: 3.2 | Relative Volatility [3, 10]: 2.3 | Relative Volatility [1, 7]: 3.3

CCCCCOC(C)=O [n-Amyl acetate]
Relative Volatility [3, 8]: 1.85

CCCCOC(C)=O [n-Butyl acetate]
Relative Volatility [3, 8]: 3.5

CCCCCCCCCCO [n-Decanol]
Relative Volatility [2, 9]: 2.3 | Relative Volatility [1]: 2.5

CCCCCCOC=O [n-Hexyl formate]
Relative Volatility [2]: 1.5 | Relative Volatility [3, 10]: 1.4 | Relative Volatility [1]: 1.7

CCCOC(C)=O [n-Propyl acetate]
Relative Volatility [3, 10]: 1.85

Dipropylene glycol methyl ether
Relative Volatility [3, 10]: 1.85 | Relative Volatility [1, 7]: 4.3

Tripropylene glycol methyl ether
Relative Volatility [1, 7]: 3.2

Source: patent US5196094A, “Separation of 1,1,1-trichloroethane from the lower alcohols by extractive distillation” (priority 1991, dated 1993)
